Structures can show the parent of a compound that is named as a salt.
Each compound was assayed against T1, human TGR5 (Homo sapiens, UniProt Q8TDU6) (assay: Cell-based TGR5 assay (cAMP generation, HTRF)). Settings: HEK293 cells stably transfected with human TGR5; cAMP by HTRF; 30 minutes at 37° C.; read-out: pEC50 Human TGR5 (converted).
T1 construct: expressed in transfected cells; host or cells: HEK293
T1 sequence (Q8TDU6 1-330): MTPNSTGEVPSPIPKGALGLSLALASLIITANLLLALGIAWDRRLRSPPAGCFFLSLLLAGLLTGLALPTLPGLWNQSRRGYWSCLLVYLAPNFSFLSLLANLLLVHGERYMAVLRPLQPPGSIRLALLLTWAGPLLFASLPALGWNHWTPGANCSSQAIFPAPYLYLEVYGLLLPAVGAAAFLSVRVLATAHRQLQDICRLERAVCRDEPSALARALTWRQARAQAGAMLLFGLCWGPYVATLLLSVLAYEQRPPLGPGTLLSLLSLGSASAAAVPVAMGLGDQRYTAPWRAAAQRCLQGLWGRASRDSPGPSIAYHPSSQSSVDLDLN
How it was run: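 First, compounds in 3-fold serial dilution were placed in HBSS with 10 mM HEPES pH 7.4 and 0.5 mM IBMX. Next, human TGR5-expressing HEK293 cells were added and incubated 30 min at 37° C. Finally, cAMP was detected by HTRF and pEC50 derived by logistic fitting.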

EC50	Compound
126 to 1000 nM	O=C([C@@H](O)[C@@H](O)[C@H](O)[C@@H](O)CO)N(CCCSc1ccc(Cl)c(CNC2(c3cnccc3-c3ccccc3OC3CC3)CC2)c1)C1CCOCC1 [Compound I-528, (2S,3S,4R,5S)-N-[3-({4-chloro-3-[({1-[4-(2-cyclopropoxyphenyl)pyridin-3-yl]cyclopropyl}amino)methyl]phenyl}sulfanyl)propyl]-2,3,4,5,6-pentahydroxy-N-(oxan-4-yl)hexanamide]
< 100 nM	O=C(CCC1CCN(S(=O)(=O)c2ccc(Cl)c(COC3(c4cnccc4-c4ccccc4OC4CC4)CC3)c2)C1)NC[C@H](O)[C@@H](O)[C@H](O)[C@H](O)CO (stereo partly drawn) [Compound I-451, 3-{1-[4-chloro-3-({-[4-(2-cyclopropoxyphenyl)pyridin-3-yl]cyclopropoxy}methyl)benzenesulfonyl]pyrrolidin-3-yl}-N-[(2S,3R,4R,5R)-2,3,4,5,6-pentahydroxyhexyl]propanamide]
126 to 1000 nM	O=C(NCCOCC[S+]([O-])c1ccc(Cl)c(COC2(c3cnccc3-c3ccccc3OC3CC3)CC2)c1)NC[C@H](O)[C@@H](O)[C@H](O)[C@H](O)CO (stereo partly drawn) [Compound I-491, 1-[2-(2-[[4-chloro-3-([1-[4-(2-cyclopropoxyphenyl)pyridin-3-yl]cyclopropoxy]methyl)benzene]sulfinyl]ethoxy)ethyl]-3-[(2S,3R,4R,5R)-2,3,4,5,6-pentahydroxyhexyl]urea]
126 to 1000 nM	Cc1ccc(SCCCN(C(=O)[C@@H](O)[C@@H](O)[C@H](O)[C@@H](O)CO)C2CCOCC2)cc1COC1(c2cnccc2-c2ccccc2OC2CC2)CC1 [Compound I-540, (2S,3S,4R,5S)-N-(3-{[3-({1-[4-(2-cyclopropoxyphenyl)pyridin-3-yl]cyclopropoxy}methyl)-4-methylphenyl]sulfanyl}propyl)-2,3,4,5,6-pentahydroxy-N-(oxan-4-yl)hexanamide]
< 100 nM	CC(CCCN(CCCS(C)(=O)=O)C(=O)[C@@H](O)[C@@H](O)[C@H](O)[C@@H](O)CO)c1ccc(Cl)c(CNC2(c3cnccc3-c3ccccc3OC3CC3)CC2)c1 (stereo partly drawn) [Compound I-292, (2S,3S,4R,5S)-N-(4-{4-chloro-3-[({1-[4-(2-cyclopropoxyphenyl)pyridin-3-yl]cyclopropyl}amino)methyl]phenyl}pentyl)-2,3,4,5,6-pentahydroxy-N-(3-methanesulfonylpropyl)hexanamide]
12600 to 50100 nM	Cc1cnc(SCCCC(=O)N(C)C[C@H](O)[C@@H](O)[C@H](O)[C@H](O)CO)nc1CNC1(c2cnccc2-c2ccccc2OC2CC2)CC1 [Compound I-656, 4-({4-[({1-[4-(2-cyclopropoxyphenyl)pyridin-3-yl]cyclopropyl}amino)methyl]-5-methylpyrimidin-2-yl}sulfanyl)-N-methyl-N-[(2S,3R,4R,5R)-2,3,4,5,6-pentahydroxyhexyl]butanamide]
1260 to 10000 nM	Clc1cc(Cl)cc(CNC2(c3cnccc3-c3ccccc3OC3CC3)CC2)c1 [Compound I-44, 1-[4-(2-cyclopropoxyphenyl)pyridin-3-yl]-N-[(3,5-dichlorophenyl)methyl]cyclopropan-1-amine]
< 100 nM	Clc1ccc(Cl)c(CNC2(c3cnccc3-c3ccccc3OC3CC3)CC2)c1 [Compound I-1, 1-[4-(2-cyclopropoxyphenyl)pyridin-3-yl]-N-[(2,5-dichlorophenyl)methyl]cyclopropan-1-amine]
< 100 nM	CS(=O)(=O)CCN(CCCCCc1cc(Cl)c(COC2(c3cnccc3-c3ccccc3OC3CC3)CC2)cc1Cl)C(=O)[C@@H](O)[C@@H](O)[C@H](O)[C@@H](O)CO (stereo in doubt) [Compound I-226, (2S,3S,4R,5S)-N-{5-[2,5-dichloro-4-({1-[4-(2-cyclopropoxyphenyl)pyridin-3-yl]cyclopropoxy}methyl)phenyl]pentyl}-2,3,4,5,6-pentahydroxy-N-(2-methanesulfonylethyl)hexanamide]
< 100 nM	O=C([C@@H](O)[C@@H](O)[C@H](O)[C@@H](O)CO)N(CCCCO)CCCSc1ccc(Cl)c(CNC2(c3cnccc3-c3ccccc3OC3CC3)CC2)c1 [Compound I-527, (2S,3S,4R,5S)-N-[3-({4-chloro-3-[({1-[4-(2-cyclopropoxyphenyl)pyridin-3-yl]cyclopropyl}amino)methyl]phenyl}sulfanyl)propyl]-2,3,4,5,6-pentahydroxy-N-(4-hydroxybutyl)hexanamide]
< 100 nM	O=C(NCCOCCNS(=O)(=O)c1ccc(Cl)c(COC2(c3cnccc3-c3ccccc3OC3CC3)CC2)c1)N[C@@H](CO)[C@@H](O)[C@H](O)[C@H](O)CO (stereo in doubt) [Compound I-408, 1-(2-{2-[4-chloro-3-({1-[4-(2-cyclopropoxyphenyl)pyridin-3-yl]cyclopropoxy}methyl)benzenesulfonamido]ethoxy}ethyl)-3-[(2S,3R,4S,5R)-1,3,4,5,6-pentahydroxyhexan-2-yl]urea]
< 100 nM	O=C(NCCCCCSc1ccc(Cl)c(COC2(c3cnccc3-c3ccccc3OC3CC3)CC2)c1)NC[C@H](O)[C@@H](O)[C@H](O)[C@H](O)CO [Compound I-488, 1-(5-[[4-Chloro-3-([1-[4-(2-cyclopropoxyphenyl)pyridin-3-yl]cyclopropoxy]methyl)phenyl]sulfanyl]pentyl)-3-[(2S,3R,4R,5R)-2,3,4,5,6-pentahydroxyhexyl]urea]
< 100 nM	COCCN(CCCC(C)c1ccc(C)c(CNC2(c3cnccc3-c3ccccc3OC3CC3)CC2)c1)C(=O)[C@@H](O)[C@@H](O)[C@H](O)[C@@H](O)CO (stereo partly drawn) [Compound I-302, (2S,3S,4R,5S)-N-(4-{3-[({1-[4-(2-cyclopropoxyphenyl)pyridin-3-yl]cyclopropyl}amino)methyl]-4-methylphenyl}pentyl)-2,3,4,5,6-pentahydroxy-N-(2-methoxyethyl)hexanamide]
< 100 nM	COCCN(C[C@H](O)[C@@H](O)[C@H](O)[C@H](O)CO)C(=O)CCCCc1cc(Cl)c(COC2(c3cnccc3-c3ccccc3OC3CC3)CC2)cc1Cl [Compound I-127, 5-[2,5-dichloro-4-({1-[4-(2-cyclopropoxyphenyl)pyridin-3-yl]cyclopropoxy}methyl)phenyl]-N-(2-methoxyethyl)-N-[(2S,3R,4R,5R)-2,3,4,5,6-pentahydroxyhexyl]pentanamide]
< 100 nM	CSc1ccc(C)c(CNC2(c3cnccc3-c3ccccc3OC3CC3)CC2)n1 [Compound I-25, 1-[4-(2-cyclopropoxyphenyl)pyridin-3-yl]-N-{[3-methyl-6-(methylsulfanyl)pyridin-2-yl]methyl}cyclopropan-1-amine]
< 100 nM	O=C(NCCCCNC(=O)NC[C@H](O)[C@@H](O)[C@H](O)[C@H](O)CO)NCCCCSc1ccc(Cl)c(COC2(c3cnccc3-c3ccccc3OC3CC3)CC2)c1 [Compound I-629, 1-(4-{[(4-{[4-chloro-3-({1-[4-(2-cyclopropoxyphenyl)pyridin-3-yl]cyclopropoxy}methyl)phenyl]sulfanyl}butyl)carbamoyl]amino}butyl)-3-[(2S,3R,4R,5R)-2,3,4,5,6-pentahydroxyhexyl]urea]
< 100 nM	O=C(NCCCCNS(=O)(=O)c1ccc(Cl)c(COC2(c3cnccc3-c3ccccc3OC3CC3)CC2)c1)N[C@@H](CO)[C@@H](O)[C@H](O)[C@H](O)CO (stereo in doubt) [Compound I-410, 1-{4-[4-chloro-3-({1-[4-(2-cyclopropoxyphenyl)pyridin-3-yl]cyclopropoxy}methyl)benzenesulfonamido]butyl}-3-[(2S,3R,4S,5R)-1,3,4,5,6-pentahydroxyhexan-2-yl]urea]
< 100 nM	Cc1cc(COC2(c3cnccc3-c3ccccc3OC3CC3)CC2)c(Cl)cc1CCCCN [Compound I-166, 4-[5-chloro-4-({1-[4-(2-cyclopropoxyphenyl)pyridin-3-yl]cyclopropoxy}methyl)-2-methylphenyl]butan-1-amine]
< 100 nM	CC(C)N(CCCCc1cc(Cl)c(COC2(c3cnccc3-c3ccccc3OC3CC3)CC2)cc1Cl)C(=O)[C@@H](O)[C@@H](O)[C@H](O)[C@@H](O)CO (stereo in doubt) [Compound I-210, (2S,3S,4R,5S)-N-{4-[2,5-dichloro-4-({1-[4-(2-cyclopropoxyphenyl)pyridin-3-yl]cyclopropoxy}methyl)phenyl]butyl}-2,3,4,5,6-pentahydroxy-N-(propan-2-yl)hexanamide]
< 100 nM	CC(CCCC(=O)N(CCOCCO)C[C@H](O)[C@@H](O)[C@H](O)[C@H](O)CO)c1ccc(Cl)c(CNC2(c3cnccc3-c3ccccc3OC3CC3)CC2)c1 (stereo partly drawn) [Compound I-342, 5-{4-chloro-3-[({1-[4-(2-cyclopropoxyphenyl)pyridin-3-yl]cyclopropyl]amino)methyl]phenyl}-N-[2-(2-hydroxyethoxy)ethyl]-N-[(2S,3R,4R,5R)-2,3,4,5,6-pentahydroxyhexyl]hexanamide]
< 100 nM	Cc1ccc(C(C)CCCC(=O)NC[C@H](O)[C@@H](O)[C@H](O)[C@H](O)CO)cc1CNC1(c2cnccc2-c2ccccc2OC2CC2)CC1 (stereo partly drawn) [Compound I-257, 5-[3-[([1-[4-(2-cyclopropoxyphenyl)pyridin-3-yl]cyclopropyl]amino)methyl]-4-methylphenyl]-N-[(2S,3R,4R,5R)-2,3,4,5,6-pentahydroxyhexyl]hexanamide dihydrochloride]
< 100 nM	Cc1ccc(Cl)c(CNC2(c3cnccc3-c3ccccc3OC3CC3)CC2)n1 [Compound I-35, N-[(3-chloro-6-methylpyridin-2-yl)methyl]-1-[4-(2-cyclopropoxyphenyl)pyridin-3-yl]cyclopropan-1-amine]
